The values below come from article PMC11823381, “Identification of novel inhibitors of dengue viral NS5 RNA-dependent RNA polymerase through molecular docking, biological activity evaluation and molecular dynamics simulations” (Journal of Enzyme Inhibition and Medicinal Chemistry, 2025).

Molecules are shown by their SMILES. Where “and” joins values, the source holds several entries; their conditions need not be identical. Identical values can stand only once. Like-named read-outs stand apart in the source and are kept apart here.

The nature of data set [1]: Cytotoxicity (CC50) in the cell-based assay. As to conditions: hamster, BHK-21 cells. On the procedure: (§1) In this study, the DENV2 NGC strain (provided by Robert B. Tesh, University of Texas Medical Branch) and BHK-21 cells (Baby hamster kidney cells, ATCC CCL10) were used for cell-based antiviral evaluations. Viral stocks were prepared by infecting C6/36 cells (Aedes albopictus clone C6/36; ATCC CRL166), cultured in RPMI 1640 medium (Invitrogen, Burlington, ON, Canada) containing 2% foetal bovine serum (FBS) (Sigma-Aldrich, Shanghai, China) and 0.5% penicillin-streptomycin. The infected cultures were incubated at 28 °C with 5% CO2 for seven days until cytopathic effects (CPE) were detected. Supernatants were collected by centrifuging at 2,000 g for 5 min to remove debris, mixed with 20% FBS, and stored in aliquots at −80 °C. Viral titres were quantified using the Promega Viral ToxGlo assay (Fisher Scientific, Ottawa, ON, Canada) on BHK-21 cells, and the 50% tissue culture infective dose (TCID50) was determined following the manufacturer’s instructions. To test antiviral activity, BHK-21 cells were seeded in 96-well plates at 2,500 cells per well using Dulbecco’s modified Eagle’s medium (DMEM) with 10% FBS and 1% penicillin-streptomycin. After overnight incubation at 37 °C, cells were exposed to 100 TCID50 of DENV for 90 min. Following infection, the medium was replaced with DMEM supplemented with 2.5% FBS and different concentrations of the test compounds. Cultures were maintained at 37 °C with 5% CO2 for 3 days. Fresh Viral Tox reagent was prepared, and 100 μL was added to each well before incubating the plates for at least 10 min. Luminescence readings were taken using a 1450 MicroBeta TriLux scintillation counter (PerkinElmer). Data were analysed by plotting luminescence values against logarithmic compound concentrations, and nonlinear regression was carried out using GraphPad Prism 10.0 software.

The subject of the next data set is DENV2 NGC strain. Put plainly: Cell-based antiviral assay (Viral ToxGlo, CPE) against DENV-NGC. As to conditions: for IC50: mean ± SD of two individual experiments; for SI (selectivity index): ratio of CC50 to IC50. On the set-up: species or system dengue virus (DENV2). As for the experimental part:
as §1

[2] abbreviates: BHK-21 cells, 100 TCID50 of DENV, 3 days, read-out: DENV-NGC-IC50.
Setting [3] is: Dengue virus, DENV2, BHK-21, 72 h, BHK-21 cells, 100 TCID50 of DENV, 3 days, read-out: DENV-NGC-IC50.
Setting [4] is: Dengue virus, DENV2, BHK-21, 72 h, read-out: DENV-NGC-IC50, BHK-21 cells, 100 TCID50 of DENV, 3 days.

Turning to `O=C(Cn1c(=O)sc2ccccc21)Nc1nnc(SCc2ccccc2)s1` [Compound D5], the 50% cytotoxic concentration (CC50) at 3 days in data set [1] is more than 200 µM. Besides, the IC50 with DENV2 NGC strain (setting [2]) is 28.5 µM and > 66.7 µM.

Regarding `CC(=O)Nc1ccc(S(=O)(=O)N[C@]2(C(F)(F)F)NC(=O)N(c3ccc(Cl)cc3)C2=O)cc1` [Compound D9], the IC50 with DENV2 NGC strain (setting [3]) is more than 200 µM.

Turning to `O=c1c2ccccc2[nH]c(=S)n1C[C@H]1CC[C@H](C(=O)NC[C@@H]2COc3ccccc3O2)CC1` [Compound D19], in the data set on DENV2 NGC strain (setting [3]), the IC50 is more than 200 µM.

`NC(=O)C1CCN(C(=O)CCCSc2nc(-c3ccco3)cc(C(F)(F)F)n2)CC1` [Compound D6]: in the data set with DENV2 NGC strain (setting [3]), the IC50 was more than 200 µM.

In the case of `O=C(O)[C@H](NC(=O)[C@@H]1CC=CC[C@H]1C(=O)c1ccccc1)c1ccccc1` [Compound D26], the half-maximal inhibitory concentration (IC50) in the data set on DENV2 NGC strain (setting [3]) is more than 200 µM.

For the compound `COc1cccc(S(=O)(=O)NC(=O)c2cc(-c3ccc(C#CCO)s3)c(OC)cc2OC)c1` [Compound 27, reference compound], in data set [1], the CC50 at 3 days was found to be 26.9 ± 3.02 µM. The IC50 with DENV2 NGC strain (setting [3]) worked out at 19.7 ± 1.12 µM. In addition, the “SI (selectivity index)” value with DENV2 NGC strain was found to be 1.37.

On to `CCOc1c(Nc2ccc(C#N)cc2)c(=O)c1=O` [Compound D15], for which the IC50 with DENV2 NGC strain (setting [3]) is more than 200 µM.

Regarding `Cc1[nH]c2ccccc2c1C(=O)C(=O)NC[C@@H]1COc2ccccc2O1` [Compound D11], it took 87.3 ± 2.75 µM to reach half-maximal cytotoxicity in data set [1] (CC50 at 3 days). The IC50 in the data set on DENV2 NGC strain (setting [4]) is more than 66.7 µM.

For the compound `CCCC[C@@](CCC(=O)O)(C(=O)OCC)c1csc(Nc2ccc(C)cc2)n1` [Compound D3], in the data set on DENV2 NGC strain (setting [3]), the IC50 is more than 66.7 µM.

As to `O=C(CCSc1nc(-c2ccc3c(c2)OCO3)cc(C(F)(F)F)n1)NCCN1CCOCC1` [Compound D4], the IC50 in the data set on DENV2 NGC strain (setting [3]) was more than 200 µM.

As to `CN(c1ccccc1)c1nc(=O)n(CC(=O)Nc2ccc(Br)cc2)c2ccccc12` [Compound D21], the 50% inhibitory concentration (IC50) with DENV2 NGC strain (setting [3]) is more than 200 µM.

Consider `O=C(Cn1c(=O)sc2ccccc21)Nc1nnc(SCC(=O)N2CCOCC2)s1` [Compound D7], for which the IC50 in the data set on DENV2 NGC strain (setting [3]) was more than 200 µM.

Turning to `Cc1ccc(NC(=O)[C@@H]2[C@H]3C(=O)N(C[C@@H]4CCCO4)[C@H](C(=O)NC4CCCCC4)[C@]34C=C[C@H]2O4)cc1` [Compound D10], in the data set with DENV2 NGC strain (setting [3]), the IC50 was more than 200 µM.

As to `O=C(COc1ccccc1)Nc1nnc(SCc2cc(=O)n3cc(Cl)ccc3n2)s1` [Compound D16], the IC50 in the data set on DENV2 NGC strain (setting [3]) was more than 200 µM.

In data set [1], `C[C@@H](Sc1nnc2c3ccccc3nc(-c3ccccc3)n12)C(=O)NC[C@H]1CCCO1` [Compound D17] yielded a CC50 at 3 days of 53 ± 10.5 µM. Moreover, the IC50 with DENV2 NGC strain (setting [3]) is 22.2 ± 7.25 µM. The “SI (selectivity index)” value in the data set with DENV2 NGC strain is 2.38.

In data set [1], `O=C(Nc1ccc(F)cc1F)N1CCC[C@@H]1c1nc2cc(-c3ccccc3F)ccc2o1` [Compound D8] gave a CC50 at 3 days of 99.2 ± 1.93 µM. Also, the IC50 in the data set on DENV2 NGC strain (setting [3]) came to 14.8 ± 7.76 µM. Further, the “SI (selectivity index)” value in the data set with DENV2 NGC strain was 6.71.

As to `O=C([C@@H]1C[C@H](Oc2ccccc2)CN1C(=O)CCc1nc2ccccc2s1)N1CCCC1` [Compound D24], the CC50 at 3 days in data set [1] was more than 200 µM. Also, the IC50 in the data set on DENV2 NGC strain (setting [4]) was more than 66.7 µM.

`O=C1C[C@@H](NCCc2c[nH]c3ccccc23)C(=O)N1c1ccc(Oc2ccccc2)cc1` [Compound D12]: the 50% cytotoxic concentration (CC50) at 3 days in data set [1] worked out at 163 ± 14.1 µM. The half-inhibitory concentration (IC50) in the data set on DENV2 NGC strain (setting [3]) came out at 47.3 ± 11.8 µM. In addition, the “SI (selectivity index)” value in the data set with DENV2 NGC strain stood at 3.45.

Consider `CN(Cc1ccccc1)C(=O)c1snc2c(=O)n(Cc3ccccc3)c(=O)[nH]c12` [Compound D1], for which the midpoint of cytotoxicity in data set [1], the CC50 at 3 days, lay at 37.5 ± 2.03 µM. Also, in the data set on DENV2 NGC strain (setting [3]), the IC50 came to 13.1 ± 1.17 µM. Moreover, the “SI (selectivity index)” value with DENV2 NGC strain amounted to 2.87.

In turn, `N#Cc1ccc(C(=O)N2CCC[C@H]2c2nc(CCOCC3CC3)no2)cc1` [Compound D23] showed a CC50 at 3 days in data set [1] of more than 200 µM. The IC50 in the data set on DENV2 NGC strain (setting [2]) was more than 200 µM; with DENV2 NGC strain (setting [3]), 123 µM.

Regarding `NC(=O)COc1ccc([C@@H]2CC(=O)Nc3nc(SCc4ccc(Cl)cc4)[nH]c(=O)c32)cc1` [Compound D14], the CC50 at 3 days in data set [1] is more than 200 µM. Besides, the half-inhibitory concentration (IC50) in the data set on DENV2 NGC strain (setting [2]) was 31.2 µM and > 200 µM.

For the compound `O=C(O)CCCNC(=O)Cn1nc2c(cc1=O)CCCCC2` [Compound D18], the IC50 in the data set with DENV2 NGC strain (setting [3]) was more than 200 µM.

In turn, `Nc1ncnc2c([C@@H]3N[C@H](CO)[C@@H](O)[C@H]3O)c[nH]c12` [BCX4430, Galidesivir, reference compound] yielded a CC50 at 3 days in data set [1] of 100 ± 12.5 µM. Moreover, the IC50 with DENV2 NGC strain (setting [3]) is 41.6 ± 2.95 µM. For the same compound, in the data set on DENV2 NGC strain, the “SI (selectivity index)” value is on record as 2.40.

Broadly, the CC50 is the concentration at which the toxic effect on the cells reaches its halfway point. Higher therefore signals lower toxicity to the cells. The term IC50 denotes the concentration that inhibits the measured activity by half.
